The values that follow come from patent publication US7718677B2, “Methods and compositions for reduction of side effects of therapeutic treatments” (priority 2007, dated 2010).

For data set [1] the following is noted: nicotine in Gatorade up to 650 μg/ml.
Protocol: Nicotine treatment: All monkeys (n=7) were then given a drinking solution for 3 weeks consisting of commercially available orange Gatorade® to mask nicotine's bitter taste (FIG. 1). The control group (n=4) was continued on Gatorade® only, while nicotine (free base) was added to the Gatorade of the treated group (n=3). Nicotine dosing was started at 50 μg/ml for 1 week, 150 μg/ml for 1 week, with the concentration increased by 150 μg increments/week over the next few weeks, up to 650 μg/ml (FIG. 1).
The subject of data set [2] is 6-hydroxydopamine-lesioned rats. The note with it: ROTOMAX, AccuScan System; n=9; saccharin group 8.2+3.7, no difference.
Protocol: Behavioral assessment of the lesion. As an index of nigrostriatal damage, the rats were tested for rotational behavior 3 and 4 weeks after lesioning. This was done using an automated behavioral measurement apparatus that has four cylindrical chambers (50 cm height×34 cm diameter) (ROTOMAX, AccuScan Instruments Inc. Columbus, Ohio, USA). A rat was placed in one of the chambers for 30 min for acclimatization, after which time amphetamine (4 mg/kg ip) was administered as previously described (Visanji et al., 2006, Neuropharmacology 51:506-516). […] The rats were tested a second time one week later and the data from the two testing periods pooled.
Data set [3] shares this test system. On the procedure:
Animal model—6-Hydroxydopamine lesioning. We used the 6-hydroxydopamine lesioned rat model of nigrostriatal damage described by Cenci and colleagues (Cenci et al., 1998 Eur J Neurosci 10:2694-2706; Cenci et al., 2002 Nat Rev Neurosci 3:574-579). Adult male Sprague-Dawley rats were anesthetized with isofluorane, and then placed in a Kopf stereotaxic instrument. Burr holes were drilled through the skull and an intracranial injection of 6 μg 6-hydroxydopamine (2 μg/μl) stereotaxically injected at two separate sites into the right ascending dopamine fiber bundle, for a total of 12 μg 6-hydroxydopamine. The coordinates for the position of these two lesion sites were as follows relative to the Bregma and dural surface: (1) anteroposterior, −4.4; lateral, 1.2; ventral, 7.8; tooth bar at −2.4; (2) anteroposterior, −4.0; lateral, 0.75; ventral, 8.0; tooth bar at +3.4 (Cenci et al., 1998 Eur J Neurosci 10:2694-2706; Cenci et al., 2002 Nat Rev Neurosci 3:574-579). All procedures conformed to the NIH Guide for the Care and Use of Laboratory Animals and were approved by the Institutional Animal Care and Use Committee.
Nicotine treatment regimen. The rats were first given a drinking solution containing 1% saccharin for 3-4 days (FIG. 8). Nicotine was then added at a concentration of 25 μg/ml, and increased to 50 μg/ml 3-4 days later. Animals were maintained on this dose for 3 weeks. L-dopa treatment was then initiated, as below, with the nicotine dosing continued.
L-dopa treatment and behavioral testing for AIMs. Rats received single daily intraperitoneal injections of 8 mg/kg L-dopa methyl ester plus 15 mg/kg benserazide for 3 weeks (FIG. 8), as described (Cenci et al., 1998 Eur J Neurosci 10:2694-2706; Cenci et al., 2002 Nat Rev Neurosci 3:574-579). Abnormal involuntary movements (AIMs) after daily LDOPA injection were then quantified using the scale developed by Cenci and colleagues (Cenci et al., 1998 Eur J Neurosci 10:2694-2706; Cenci et al., 2002 Nat Rev Neurosci 3:574-579), as previously done in our laboratory (Cox et al., 2007, Exp. Neurol.). Rats were placed in a Rotomax test chamber. They were then scored on a scale from 0 to 4: 1=occasional; 2=frequent; 3=continuous but interrupted by sensory distraction; 4=continuous, severe, not interrupted by sensory distraction. The rating categories were as follows; (1) axial dystonia, consisting of twisting posturing of the head and neck; (2) orolingual dyskinesia, with stereotyped jaw movements and contralateral tongue protrusion and (3) forelimb movements, with dystonic movements of the contralateral forelimb. They were also assessed for locomotive dyskinesia, or increased locomotion with contralateral side bias; however, these scores were not included because the interpretation of this motor response is not clear (Papa et al., 1994 Brain Res 662; 69-74; Cenci et al., 1998 Eur J Neurosci 10:2694-2706).
Locomotive dyskinesias are distinct from turning behavior described above. […] The maximum possible score in each session was thus 108 (maximum score per observation=12; number of observations per session=9). Rats were evaluated by two raters, one blinded to treatment.
Data analyses. Statistical significance was determined using Student's t-tests or ANOVA followed by Bonferroni post hoc tests, as appropriate. Data are mean±SEM. A p level of 0.05 was considered significant.

On to `CN1CCCC1c1cccnc1` (centres unmarked) [Nicotine, S-3-(1-methyl-2-pyrrolidinyl)pyridine], for which the “effects on body weight or fluid intake” value in data set [1] is “no significant effects”. Also, the extent of turning in data set [2] was 8.4+6.7. Besides, in data set [3] (25 μg/ml nicotine in the drinking water, two and four weeks after dose lowering, pooled), the “total AIMs” value is recorded as “reduction in AIMs was sustained”. Besides, the “total AIM scores” value in data set [3] (50 μg/ml nicotine in drinking water, after 3 weeks of L-dopa 8 mg/kg ip, entire 3-hour period) is given as “reduction”. Moreover, in data set [3] (3 and 6-8 week time points), the oral dyskinesias entry is on record as “trend for a decrease”. In addition, in data set [3] (3 and 6-8 week time points, both doses of nicotine (50 and 25 μg/ml)), the forelimb dyskinesias entry is “significant decreases”. For the same molecule, in data set [3] (6-8 week time point), the axial dyskinesias result is given as “significant decreases”. Besides, the “persistence of the decline in AIMs with L-dopa treatment” value in data set [3] (25 and 50 μg/ml in the drinking water) was “at least 2 months”.
